From US20110268818A1, “NGAL-BINDING SIDEROPHORES AND USE THEREOF TO TREAT IRON DEFICIENCY AND IRON OVERLOAD” (priority 2008, published 2011)
Counter-ions that a name gives are not always drawn. Blank lines part the entries; values can stand above or below the molecule they belong to.

Experiments:
NGAL [1] = biological target: T1, NGAL (Homo sapiens, UniProt P80188); assay: NGAL:siderophore:iron binding assay (retention on 10 kDa filter); conditions: for NGAL: Chelator: Fe % Retention: apoNGAL 10 μM, 55Fe, compound 10 μM, pH 7.4, washed on 10 kDa filter; for NGAL-siderophore-Fe binding activity (in words): iron retention by NGAL on filter
T1 construct: made in house; host or cells: E. coli BL-21
Experimental: NGAL:Siderophore:Iron Binding Assays. […] After 60 minutes, the mixture was washed 3 times (YM-10) or alternatively gel filtered (PD-10, GE Biosciences). Ent loaded NGAL served as a positive control. Ferric citrate (1 mM) or Ent:iron (500 μM) served as competitors of ^55Fe binding.
After 60 minutes at room temperature, the mixture was then washed 3 times on a 10-kDa membrane (Amicon YM-10; Millipore Corp.). Ngal loaded with iron-free enterochelin (rather than apo-Ngal) served as a positive control for iron capture. Ferric citrate (1 mM) or iron-loaded enterochelin (siderophore:Fe, […]) was used as a competitor of 55Fe binding.

[2] = Catechol sulfate stability followed by silica gel TLC; assay type: physicochemical
From the text: FIG. 29 is a reproduction of Silical gel TLC developed by Dichlorlmethane: MeOH:H2O=5:1:0.1, and colored by 12.

[3] = Siderophore:iron binding assay (paper chromatography); conditions: 55Fe mobilised by compound on paper chromatogram developed in water; Yes/No
From the text: Siderophore:Iron Binding Assay. To test whether candidates bound iron directly, candidates (1 nmole) were mixed with ^55Fe (1 pmole), and then separated bound from free ^55Fe using paper chromatography developed in water.
Paper chromatography: The Fe-Siderophore Binding Assay: The concept underlying the Ngal-siderophore-Fe binding assay is that the urinary molecule provides an iron binding siderophore, and that the Ngal protein provides the carrier which retains the siderophore:Fe on the 10 KDa filter. […] To directly test this idea, we will mix 55Fe with HMDB compounds and then separate bound from free 55Fe by using paper chromatography. […] The assay also provides an independent means to follow the purification of the urinary siderophore. Using this assay, we can measure the specific activity of the fractions to identify the peak activity, as well as to compare the urinary fraction with enterochelin to establish relative units of activity.

NGAL [4] = biological target: T1, NGAL; assay: Release of ligands and iron from NGAL complexes by acidification; assay type: physicochemical; conditions: fluorescence and 55Fe release
From the text: FIGS. 6A-6C. Release of ligands from NGAL by acidification. […] Fluorescence was quenched by ligand binding. Upon acidification, the ligands were released and fluorescence returned to baseline. Subsequent basification, where relevant, caused rebinding. Note that NGAL:pyrogallol and 2,3-dihydroxybenzoic acid complexes required much lower pH for dissociation. (B) Release of ^55Fe from different NGAL:catecholate complexes by low pH washes on a 10 KDa microcon. For this comparison, the retention of iron at pH7.0 was defined as 100%. […] Data were presented as mean±Std.
To transport iron from plasma to cells there has to be a mechanism for releasing iron from the complex. Intracellular delivery of iron by transferring is known to require passage through acidified endosomes where iron is released. […] While the complex was stable at neutral pH, acidification below pH 7.0 progressively reversed ligand-dependent fluorescence quenching of NGAL and released iron (FIG. 6A, B).
Fluorescence quenching binding assay. […] The pH was adjusted until the fluorescence signal stopped changing, while fluorescence values were corrected for dilution. Data were analyzed by a nonlinear regression analysis using a one-site binding model (Kuzmic, P. (1996). Program DYNAFIT for the analysis of enzyme kinetic data: application to HIV proteinase. Anal. Biochem. 237, 260-273). […]

NGAL [5] = biological target: T1, NGAL; assay: Fluorescence quenching binding assay
Experimental: Fluorescence quenching binding assay. […] The pH was adjusted until the fluorescence signal stopped changing, while fluorescence values were corrected for dilution. […] Control experiments were performed to ensure the stability of the protein at experimental conditions, including the dilution and the addition of DMSO and ubiquitin.

[6] = Catechol and iron traffic to the kidney in vivo; conditions: mouse
[7] = Hydroxyl radicals detected by conversion of HPF to fluorescein; assay type: biochemical; conditions: catechol, ferric iron and H2O2
From the text: NGAL Blocks Iron Induced Hydroxyl Radicals. […] Hydroxyl radicals were detected by the conversion of HPF to fluorescein (Setsukinai, K., Urano, Y., Kakinuma, K., Majima, H. J., Nagano, T. (2003). Development of Novel Fluorescence Probes That Can Reliably Detect Reactive Oxygen Species and Distinguish Specific Species. J Biol Chem. 278, 170-3175) using […].

[8] = Free catechol stability in solution monitored by NMR; assay type: physicochemical; conditions: monitored for 20 hrs by NMR, D2O
From the text: J. Agric Food Chem. 54, 5755-5762; Carmella, S. G., La, V. E. J., Hecht, S. S. (1982). […] Food Chem Toxicol. 20, 587-590) and aromatic amino acids (˜50%; Martin et al., 1982; Carmella et al., 1982; Bakke, O. M. (1969). Urinary simple phenols in rats fed purified and nonpurified diets. J. Nutr. 98, 209-216). […] Using urinary biomarkers to elucidate dose-related patterns of human benzene metabolism. Carcinogenesis 27, 772-781), whereupon they are sulfonated (Rennick, B., Quebbemann, A. (1970). Site of excretion of catechol and catecholamines: renal metabolism of catechol. Am. J. Physiol. 218, 1307-1312).

Mouse stromal cells = assay: Capture of NGAL:siderophore:55Fe by stromal cells; assay type: cell-based; conditions: bafilomycin inhibits vacuolar H+ ATPase
Experimental: Capture of NGAL:Siderophore:Iron. Mouse stromal cells (10^5) were grown in MEM, 10% FCS for 24 hrs and FCS subsequently removed. […] Cells were washed 3 times and extracted with 0.2% SDS.

[9] = Reduction of Fe3+ to Fe2+ detected with phenanthroline; assay type: biochemical; conditions: catechols 45 μM, ferric iron 15 μM, NGAL 15 μM

Molecule: Oc1ccccc1O [Catechol]
NGAL: Chelator: Fe % Retention (NGAL [1]): 56%
NGAL-siderophore-Fe binding activity (in words) (NGAL [1]): most active compound
NGAL-siderophore-Fe binding activity (in words) (NGAL [1]; listed as catechol): highest activities
clearance of free 14C-catechol by organs [6]: rapidly cleared
pH at which the NGAL:ligand:iron complex dissociates (NGAL [4]): 5.5 pH
conversion of HPF to fluorescein (hydroxyl radical formation) [7]: Conversion of HPF to fluorescein occurs
increase in binding affinity for NGAL in the presence of iron (NGAL [5]; with iron vs without iron): 10^5
stability of free catechol in solution [8]: stable in solution

Molecule: CCC1C(=O)NC(CC2=N/C(=C\c3[nH]c(CC4NC(=O)C(C)C4CC)c(C)c3CCC(=O)O)C(CCC(=O)O)=C2C)C1C (centres unmarked) [Urobilin HCl]
NGAL: Chelator: Fe % Retention (NGAL [1]): 3%
Fe: Chromatography [3]: No

Molecule: CO/C1=C\C(C)=C\[C@@H](C)[C@@H](O)[C@@H](C)C/C(C)=C/C=C/[C@H](OC)[C@@H]([C@@H](C)[C@@H](O)[C@H](C)[C@@]2(O)C[C@@H](O)[C@H](C)[C@@H](C(C)C)O2)OC1=O [bafilomycin]
iron donation from NGAL:catechol:iron complex to cells (Mouse stromal cells): blocked

Molecule: Maleic acid
NGAL: Chelator: Fe % Retention (NGAL [1]): 4%
Fe: Chromatography [3]: No

B1: NGAL: Neutrophil Gelatinase Associated Lipocalin, recombinant protein (protein, UniProt P80188 21-198, looked up)
Neutrophil …: QDSTSDLIPAPPLSKVPLQQNFQDNQFQGKWYVVGLAGNAILREDKDPQKMYATIYELKEDKSYNVTSVLFRKKKCDYWIRTFVPGCQPGEFTLGNIKSYPGLTSYLVRVVSTNYNQHAMVFFKKVSQNREYFKITLYGRTKELTSELKENFIRFSKSLGLPENHIVFPVPIDQCIDG
reduction of ferric iron to ferrous iron (phenanthroline) [9]: blocked the reaction
conversion of HPF to fluorescein (hydroxyl radical formation) [7]: blocked the reaction

More lines, now with the values ahead:

NGAL: Chelator: Fe % Retention (NGAL [1]): 4%
stability in methanol at pH≦6 ([2]; incubated for 1 hour): decompose
stability in urine ([2]; incubated for 48 hours): stable
Molecule: O=S(=O)([O-])Oc1ccccc1O.[Na+]

NGAL: Chelator: Fe % Retention (NGAL [1]): 56%
NGAL-siderophore-Fe binding activity (in words) (NGAL [1]): highest activities
Fe: Chromatography [3]: Yes
pH at which the NGAL:ligand:iron complex dissociates (NGAL [4]): 5.5 pH
Molecule: Cc1cccc(O)c1O [3-methylcatechol]

NGAL: Chelator: Fe % Retention (NGAL [1]): 29%
NGAL-siderophore-Fe binding activity (in words) (NGAL [1]): highest activities
Fe: Chromatography [3]: Yes
affinity for NGAL (in words) (NGAL [5]): low affinity
Molecule: Cc1ccc(O)c(O)c1 [4-methylcatechol]
